Laboratory results as given in ChEMBL document CHEMBL1201862, “PubChem BioAssay data set” (2004).
Values belong to the compound of their own block, whether it stands above or below them. The source made the active and inactive calls.

Experiments:
Cytochrome P450 3A4 = Cytochrome P450 3A4 (Homo sapiens, UniProt P08684);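 also: CYP3A4 tested as one member of a cytochrome P450 panel screen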
Escherichia coli = assay: microbe, parasite or virus in culture
BJ [1] = assay: BJ-TERT fibroblast viability loss – cell-based, RAS-independent, luminescence, dose response (AID 1933); assay type: functional; details: Homo sapiens
[2] = DRD fibroblast viability loss – cell-based, non-viral oncogenic, luminescence, dose response (AID 1934); assay type: functional; details: Homo sapiens
[3] = viability of HCT116 lacking mutant beta-catenin – cell-based, human colon tumor, dose response (AID 1045); assay type: functional;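 also: HCT116 colon tumor cells with beta catenin knocked out; cells exposed to compound for 60 hours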
BJ [4] = assay: BJ-TERT-LT-ST fibroblast viability loss – cell-based, RAS-independent, luminescence, dose response (AID 1935); assay type: functional; details: Homo sapiens;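 also: BJ fibroblasts immortalized with TERT plus LT and ST oncogenes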
[5] = HEK-293T viability loss after treatment – luminescence, T-cell screen hits, cytotoxicity control for TCR NF-kB inhibitor project, dose response (AID 489026); assay type: functional, cell-based;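 also: cells exposed to compound about 14 hours before the viability readout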
BJ [6] = assay: cells; assay type: functional, cell-based; details: Homo sapiens, read-out: EC50
[7] = viability of PTEN-deleted HCT116 cells – cell-based, HCT116 PTEN knockout, dose response (AID 1047); assay type: functional;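 also: HCT116 colon tumor cells with PTEN knocked out; cells exposed to compound for 60 hours before readout; potency for loss of cell viability measured by luminescence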
Paired box protein Pax-8 = Paired box protein Pax-8 (Homo sapiens, UniProt Q06710); assay: PAX8 transcriptional activity inhibition in RMG-I – RMG-I cells, luciferase, cherry-pick, dose response (AID 687027); assay type: functional, cell-based;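 also: luciferase reporter driven by Pax8 target thyroperoxidase promoter measured by SteadyGlo luminescence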
[8] = target: T1, Heat shock factor protein 1 (Mus musculus, UniProt P38532); assay: decrease of HSF1-responsive luciferase luminescence – cell-based, NIH3T3, dose retest, confirmation (AID 2382); assay type: functional;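 also: NIH3T3 fibroblasts with HSF1-driven luciferase reporter stressed by proteasome inhibitor MG132; luminescence from HSF1-driven luciferase expression after 8 hours of MG132 stress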
T1 sequence (P38532 whole entry): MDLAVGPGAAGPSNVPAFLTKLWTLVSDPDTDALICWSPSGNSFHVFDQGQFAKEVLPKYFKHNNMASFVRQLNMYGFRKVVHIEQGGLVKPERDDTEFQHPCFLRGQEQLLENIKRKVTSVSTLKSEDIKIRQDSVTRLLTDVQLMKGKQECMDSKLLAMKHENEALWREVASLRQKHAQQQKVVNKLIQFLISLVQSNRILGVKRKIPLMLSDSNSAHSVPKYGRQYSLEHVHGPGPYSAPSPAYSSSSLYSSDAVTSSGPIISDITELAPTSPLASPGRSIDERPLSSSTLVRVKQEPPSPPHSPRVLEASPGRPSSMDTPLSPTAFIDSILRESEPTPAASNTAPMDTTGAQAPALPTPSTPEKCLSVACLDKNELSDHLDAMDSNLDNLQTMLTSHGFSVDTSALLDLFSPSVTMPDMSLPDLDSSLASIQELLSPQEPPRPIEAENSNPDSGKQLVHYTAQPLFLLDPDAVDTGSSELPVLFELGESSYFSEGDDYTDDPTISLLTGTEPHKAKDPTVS

Cytochrome P450 3A4, sequence (P08684 whole entry): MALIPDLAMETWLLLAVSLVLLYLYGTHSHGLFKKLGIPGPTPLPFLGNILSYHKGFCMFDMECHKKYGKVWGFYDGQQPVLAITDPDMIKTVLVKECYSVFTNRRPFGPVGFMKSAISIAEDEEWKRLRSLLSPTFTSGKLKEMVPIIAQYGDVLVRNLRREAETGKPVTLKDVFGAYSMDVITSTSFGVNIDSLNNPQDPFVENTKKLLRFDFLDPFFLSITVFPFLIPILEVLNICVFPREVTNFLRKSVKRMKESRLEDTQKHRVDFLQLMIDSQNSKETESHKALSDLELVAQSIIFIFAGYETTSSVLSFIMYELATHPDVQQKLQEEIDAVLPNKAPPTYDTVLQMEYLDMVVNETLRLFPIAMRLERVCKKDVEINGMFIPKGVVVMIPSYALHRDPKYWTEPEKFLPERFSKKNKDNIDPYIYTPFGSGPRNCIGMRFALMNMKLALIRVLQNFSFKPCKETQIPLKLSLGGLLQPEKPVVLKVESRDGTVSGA
Paired box protein Pax-8, sequence (Q06710 whole entry): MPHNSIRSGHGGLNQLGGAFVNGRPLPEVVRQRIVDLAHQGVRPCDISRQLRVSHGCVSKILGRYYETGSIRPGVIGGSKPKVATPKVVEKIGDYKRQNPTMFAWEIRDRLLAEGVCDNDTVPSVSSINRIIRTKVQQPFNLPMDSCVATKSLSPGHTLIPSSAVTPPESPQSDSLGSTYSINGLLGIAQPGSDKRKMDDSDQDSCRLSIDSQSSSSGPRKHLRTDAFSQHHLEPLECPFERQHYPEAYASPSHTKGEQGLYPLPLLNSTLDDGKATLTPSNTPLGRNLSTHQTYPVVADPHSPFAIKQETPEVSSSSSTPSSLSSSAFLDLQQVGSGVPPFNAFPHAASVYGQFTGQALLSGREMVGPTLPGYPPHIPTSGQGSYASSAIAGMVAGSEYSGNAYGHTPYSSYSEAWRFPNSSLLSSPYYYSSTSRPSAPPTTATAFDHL

AC50 (Cytochrome P450 3A4): inconclusive
Structure (SMILES): COc1ccc(CNC(C)(C)C)cc1Cl.Cl

Structure (SMILES): Cc1ccc(-c2cc(C(=O)OCC(=O)N(C)c3c(N)n(Cc4ccccc4)c(=O)[nH]c3=O)c3ccccc3n2)o1
AC50 (Escherichia coli): 25.8 µM (active)

Structure (SMILES): COc1cc(C(=O)N2CCN(c3cccc(C)c3C)CC2)cc(OC)c1OC
EC50 (BJ [1]): 7.81 µM (inconclusive) | EC50 [2]: 11.8 µM (inconclusive) | EC50 [3]: 721 nM (active) | EC50 (BJ [4]): 4.12 µM (active) | IC50 [5]: > 80 µM (inactive) | EC50 (BJ [6]): 20.4 µM (active) | EC50 [7]: 876 nM (active)

AC50 (Cytochrome P450 3A4): inconclusive
Structure (SMILES): CC1(C)CC(=O)c2cnc(N)nc2C1

AC50 (Cytochrome P450 3A4): inconclusive
Structure (SMILES): CS(=O)(=O)N1CCC2(CC1)CN(C(c1ccccc1)c1ccccc1)C2

Structure (SMILES): O=C(O)C1C(=O)NCC1c1ccccc1 (configuration not stated)
AC50 (Escherichia coli): 24.3 µM (active)

Structure (SMILES): CC(C)NC(=O)N1CCC2(CC1)CCN(C(=O)Oc1ccccc1)CC2
AC50 (Cytochrome P450 3A4): inconclusive

Structure (SMILES): Cc1nc2scc(-c3ccccc3)c2c(=O)n1/N=C/c1ccco1
AC50 (Escherichia coli): 23.4 µM (active)

Structure (SMILES): C/N=c1\scc(-c2cccs2)n1/N=C/c1ccccc1O
AC50 (Paired box protein Pax-8): < 260 nM (active) | IC50 [5]: > 80 µM (inactive) | EC50 [8]: < 160 nM (active)
